# Laboratory results: paper PMC9656787, “Design, Synthesis and Biological Evaluation of Novel 1,3,5-Triazines: Effect of Aromatic Ring Decoration on Affinity to 5-HT7 Receptor” (International Journal of Molecular Sciences, 2022)
# Legend:
# [1] = target: T1, 5-HT1A receptor (Homo sapiens, UniProt P08908); test: Radioligand binding assay, 5-HT1A receptor; settings: mean ± SD, triplicate at 7 concentrations, Cheng-Prusoff; read-out: Affinity Ki 5-HT1AR
# T1 construct: host or cells: cell membranes from cultured cells
# T1 sequence (P08908 1-422): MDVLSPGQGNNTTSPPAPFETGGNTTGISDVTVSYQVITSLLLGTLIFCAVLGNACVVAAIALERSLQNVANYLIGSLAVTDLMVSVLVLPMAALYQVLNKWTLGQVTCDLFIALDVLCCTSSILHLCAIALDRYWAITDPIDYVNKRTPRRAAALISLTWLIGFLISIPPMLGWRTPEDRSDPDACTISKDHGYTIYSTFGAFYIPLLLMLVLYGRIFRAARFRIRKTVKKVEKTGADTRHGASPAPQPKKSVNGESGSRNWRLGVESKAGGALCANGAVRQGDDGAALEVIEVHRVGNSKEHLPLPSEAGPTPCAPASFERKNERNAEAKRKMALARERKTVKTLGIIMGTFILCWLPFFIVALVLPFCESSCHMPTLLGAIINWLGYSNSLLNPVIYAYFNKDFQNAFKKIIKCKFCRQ
# Experimental: (§1) The affinity of the studied compounds to 5-HT1A, 5-HT2A, 5-HT6, 5-HT7, and D2 receptors was evaluated by a radioligand assay, as reported previously (Table 1). Each compound was tested in triplicate at seven concentrations (from 0.1 nM to 100 µM). Inhibition constants (Ki) were calculated from the Cheng–Prusoff equation [23].
# (§2) The cell culture, cell membranes, and radioligand binding assays were performed in accordance with standard protocols.
# [2] = target: T2, D2 receptor (Homo sapiens, UniProt P14416); test: Radioligand binding assay, D2 receptor; settings: mean ± SD, triplicate at 7 concentrations, Cheng-Prusoff; read-out: Affinity Ki D2R
# T2 construct: host or cells: cell membranes from cultured cells
# T2 sequence (P14416 whole entry): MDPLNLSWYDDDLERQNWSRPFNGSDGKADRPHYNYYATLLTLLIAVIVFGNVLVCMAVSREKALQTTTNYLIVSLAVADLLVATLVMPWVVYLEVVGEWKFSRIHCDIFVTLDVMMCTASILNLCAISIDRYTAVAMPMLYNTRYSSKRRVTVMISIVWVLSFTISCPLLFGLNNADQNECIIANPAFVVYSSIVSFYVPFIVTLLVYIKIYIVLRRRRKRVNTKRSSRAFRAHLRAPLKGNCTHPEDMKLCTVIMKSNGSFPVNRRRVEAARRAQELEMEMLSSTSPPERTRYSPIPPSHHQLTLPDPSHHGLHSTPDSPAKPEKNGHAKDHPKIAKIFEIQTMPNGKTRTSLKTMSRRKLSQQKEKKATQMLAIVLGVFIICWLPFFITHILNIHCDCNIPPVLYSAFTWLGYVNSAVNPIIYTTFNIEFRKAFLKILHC
# Experimental: as §1, §2
# [3] = system: Danio rerio; test: In vivo cardiotoxicity (heart rate, malformations) in zebrafish embryos; settings: 96 h
# Experimental: (§3) The compounds were evaluated for their ecotoxicity on the Danio rerio experimental model. OECD 236 test with modifications was applied. Both compounds were found cardiotoxic within the non-toxic range, based on the heart rate measurement. For the compound 2, 5 µg/mL was found cardiotoxic (Figure 10) and for 12, 7.5 µg/mL (Figure 11). The results were confirmed by malformations observation. […] Moreover, scoliosis (S) and tail autophagy (TA) were also noted.
# To determine the toxicity of the compounds, the fish embryo toxicity (FET) test was performed on zebrafish (Danio rerio) according to OECD Test Guideline 236. The collected embryos were transferred to a Petri dish with E3 medium (5 mM NaCl, 0.33 mM MgCl2, 0.33 mM CaCl2, 0.17 mM KCl; pH 7.2) and then placed in 6-well plates, 10 embryos per well. Stock solutions 2 and 12 were prepared in DMSO. In these experiments, the range of different concentrations of the solutions was prepared by dissolving stock solutions in the E3 medium each time directly before addition to the wells. The solutions were changed once daily, and the embryos were maintained in the incubator at 28.5 °C. At the end of the exposure period (96 hpf–hours postfertilization), acute toxicity was determined based on a positive outcome in any of the four visual indicators of lethality, including the coagulation of fertilized eggs, lack of somite formation, lack of detachment of the tailbud from the yolk sac and lack of heartbeat. The value of LD50 was calculated. Heartbeats were recorded to observe cardiotoxic effects. Moreover, images of the fish from each group were taken at the final time point to monitor the occurrence of developmental malformations. For the observations, a Discovery V8 Stereo optical microscope and Zeiss hardware were used. A dose-response curve was generated using Prism 8.0.1 (GraphPad Software) by fitting a sigmoid curve model to experimental data points. The concentrations of the compounds of interest causing 50% mortality (LD50) of 96 hpf larvae of Danio rerio were calculated.
# [4] = Hepatotoxicity: HepG2 cell line viability; format: cell-based; settings: human, HepG2 cells; HepG2, 50 µM, 72 h incubation
# Experimental: (§4) The tested compounds 2 and 12 were evaluated in terms of cytotoxicity against the HepG2 cell line to assess their hepatotoxic potential (Figure 9). […].
# (§5) All assays were performed according to the protocols described previously.
# (§6) Figure 9 The effect of cytostatic drug doxorubicin and 2 (left), 12 (right) on hepatoma HepG2 cell line viability after 72 h of incubation at 37°, 5% CO2. The statistical significance (GraphPad Prism 8.0.1) was evaluated by a one–way ANOVA, followed by Bonferroni’s Comparison Test (* p < 0.05, ** p < 0.01, and **** p < 0.0001 compared with negative control DMSO 1% in growth media.
# [5] = system: HepG2 cell line; test: Hepatotoxicity: HepG2 cell line viability; format: cell-based; settings: 72 h incubation; for cell viability (in words): HepG2, 100 µM; for effect on HepG2 cells at lower concentrations (in words): HepG2, <10 µM
# Experimental: as §4, §5, §6
# [6] = target: T3, 5-HT6 receptor (Homo sapiens, UniProt P50406); test: Radioligand binding assay, 5-HT6 receptor; settings: mean ± SD, triplicate at 7 concentrations, Cheng-Prusoff; read-out: Affinity Ki 5-HT6R
# T3 construct: host or cells: cell membranes from cultured cells
# T3 sequence (P50406 whole entry): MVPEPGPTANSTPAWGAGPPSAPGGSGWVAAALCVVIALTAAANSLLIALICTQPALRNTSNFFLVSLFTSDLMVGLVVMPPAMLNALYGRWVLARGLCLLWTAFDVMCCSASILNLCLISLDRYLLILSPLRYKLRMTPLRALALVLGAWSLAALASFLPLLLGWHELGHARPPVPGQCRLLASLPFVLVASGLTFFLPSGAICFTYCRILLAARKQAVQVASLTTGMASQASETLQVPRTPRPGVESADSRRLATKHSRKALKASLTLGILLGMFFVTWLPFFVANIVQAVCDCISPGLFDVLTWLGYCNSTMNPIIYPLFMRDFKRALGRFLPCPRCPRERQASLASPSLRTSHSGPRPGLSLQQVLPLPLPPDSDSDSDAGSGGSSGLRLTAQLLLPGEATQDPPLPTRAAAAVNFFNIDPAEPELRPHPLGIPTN
# Experimental: as §1, §2
# [7] = system: Danio rerio; test: Fish embryo toxicity (FET) test, OECD 236, mortality; format: in vivo; settings: 96 hpf larvae, 96 h incubation at 28 °C
# Experimental: as §3
# To determine the toxicity of the compounds, the fish embryo toxicity (FET) test was performed on zebrafish (Danio rerio) according to OECD Test Guideline 236. The collected embryos were transferred to a Petri dish with E3 medium (5 mM NaCl, 0.33 mM MgCl2, 0.33 mM CaCl2, 0.17 mM KCl; pH 7.2) and then placed in 6-well plates, 10 embryos per well. Stock solutions 2 and 12 were prepared in DMSO. […] At the end of the exposure period (96 hpf–hours postfertilization), acute toxicity was determined based on a positive outcome in any of the four visual indicators of lethality, including the coagulation of fertilized eggs, lack of somite formation, lack of detachment of the tailbud from the yolk sac and lack of heartbeat. The value of LD50 was calculated. Heartbeats were recorded to observe cardiotoxic effects. […]
# [8] = target: T4, 5-HT7 receptor (Homo sapiens, UniProt P34969); test: Radioligand binding assay, 5-HT7 receptor; settings: for Ki: mean ± SD, triplicate at 7 concentrations, Cheng-Prusoff, read-out: Affinity Ki 5-HT7R
# T4 construct: host or cells: cell membranes from cultured cells
# T4 sequence (P34969 1-432 limits assumed): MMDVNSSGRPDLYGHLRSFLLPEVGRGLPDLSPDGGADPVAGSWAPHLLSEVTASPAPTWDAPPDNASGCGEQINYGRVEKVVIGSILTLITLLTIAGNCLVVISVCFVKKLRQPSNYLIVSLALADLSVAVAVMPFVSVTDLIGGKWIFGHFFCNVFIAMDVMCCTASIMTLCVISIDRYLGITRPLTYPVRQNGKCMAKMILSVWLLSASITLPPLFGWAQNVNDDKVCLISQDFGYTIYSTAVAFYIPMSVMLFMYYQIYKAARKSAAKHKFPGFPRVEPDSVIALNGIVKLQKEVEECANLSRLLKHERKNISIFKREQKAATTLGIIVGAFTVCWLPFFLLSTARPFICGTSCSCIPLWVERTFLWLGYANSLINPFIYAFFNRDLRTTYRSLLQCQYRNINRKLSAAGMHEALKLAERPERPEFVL
# Experimental: as §1, §2
# [9] = target: CYP3A4 (Homo sapiens, UniProt P08684); test: CYP3A4 activity (drug-drug interaction) assay; format: in vitro ADME; settings: for inhibition activity toward CYP3A4 (in words): compound at 1 µM (concentration of ketoconazole) or lower; for %CYP3A4 activity: negative control = 100%
# Chain of CYP3A4 (P08684 whole entry): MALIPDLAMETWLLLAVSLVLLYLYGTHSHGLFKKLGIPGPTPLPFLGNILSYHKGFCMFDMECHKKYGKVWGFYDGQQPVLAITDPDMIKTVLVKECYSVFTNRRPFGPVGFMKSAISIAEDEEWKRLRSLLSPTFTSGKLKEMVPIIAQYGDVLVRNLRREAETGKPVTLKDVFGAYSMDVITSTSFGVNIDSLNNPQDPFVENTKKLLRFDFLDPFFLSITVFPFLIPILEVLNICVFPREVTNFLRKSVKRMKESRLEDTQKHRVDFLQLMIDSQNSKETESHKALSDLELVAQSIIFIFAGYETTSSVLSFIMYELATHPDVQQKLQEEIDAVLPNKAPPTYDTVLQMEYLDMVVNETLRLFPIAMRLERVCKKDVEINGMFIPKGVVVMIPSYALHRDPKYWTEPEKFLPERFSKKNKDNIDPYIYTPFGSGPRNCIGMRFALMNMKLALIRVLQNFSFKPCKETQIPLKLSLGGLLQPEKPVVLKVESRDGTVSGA
# Experimental: Potential drug–drug interactions (DDIs) are an important aspect that should be considered when designing new compounds. Isoenzyme CYP3A4 is one of the varieties of enzymes responsible for xenobiotic metabolism. We evaluated active compounds 2 and 12 in terms of affinity toward this isoenzyme (Figure 8).
# as §5
# Figure 8 The influence of 2 (left), 12 (right), and ketoconazole (KE) on CYP3A4 activity. Statistical significance (** p < 0.01, **** p < 0.0001) was analyzed by Graph Pad Prism 8.0.1 software using One-way ANOVA and Bonferroni’s Multiple Comparison Post Test in comparison with the negative control (100% of CYP3A4 activity). The compounds were examined in triplicate.
# [10] = target: T5, 5-HT2A receptor (Homo sapiens, UniProt P28223); test: Radioligand binding assay, 5-HT2A receptor; settings: mean ± SD, triplicate at 7 concentrations, Cheng-Prusoff; read-out: Affinity Ki 5-HT2AR
# T5 construct: host or cells: cell membranes from cultured cells
# T5 sequence (P28223 whole entry): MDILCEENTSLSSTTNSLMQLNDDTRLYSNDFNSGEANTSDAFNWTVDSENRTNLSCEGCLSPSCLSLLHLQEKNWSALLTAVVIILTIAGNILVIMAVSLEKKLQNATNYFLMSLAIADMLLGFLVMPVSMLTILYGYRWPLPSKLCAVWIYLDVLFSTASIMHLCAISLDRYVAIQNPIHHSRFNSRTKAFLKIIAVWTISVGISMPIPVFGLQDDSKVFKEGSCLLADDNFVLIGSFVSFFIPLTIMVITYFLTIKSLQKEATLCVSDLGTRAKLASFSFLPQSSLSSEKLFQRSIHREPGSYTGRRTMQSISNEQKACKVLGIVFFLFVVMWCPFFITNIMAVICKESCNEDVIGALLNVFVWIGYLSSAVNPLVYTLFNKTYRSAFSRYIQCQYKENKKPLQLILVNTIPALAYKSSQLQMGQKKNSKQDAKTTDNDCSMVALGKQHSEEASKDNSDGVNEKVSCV
# Experimental: as §1, §2
# [11] = Metabolic stability in mouse liver microsomes (MLMs), UHPLC-MS; format: in vitro ADME; settings: for Metabolic Pathway: metabolites M1, M2 ... in order, after incubation with MLMs; for remaining at 2 h: mouse, liver microsomes; for remaining at 2 h / % Remaining: original compound remaining after 2 h (120 min) incubation with MLMs
# Experimental: It seems, however, that substituents at the B ring of the ligands have a more important role. […] The data correspond to our previous results, in which substituents at the B ring increased metabolic stability. Potential sites in the molecules sensitive to enzyme activity and leading to degradation were proposed using an in silico approach, also with MetaSite 6.0.1 (Figure 7).
# as §5
SMILES,Ki [1],Ki [2],concentration at which pericardial edema (PE) was observed [3],concentration found cardiotoxic (heart rate measurement) [3],"viability at 72 h, 50 µM [4]",cell viability (in words) [5],effect on HepG2 cells at lower concentrations (in words) [5],Ki [6],LD50 (mortality) [7],activity with respect to 5-HT7R (in words) ([8]; SAR discussion of radioligand data),Ki [8],inhibition activity toward CYP3A4 (in words) [9],%CYP3A4 activity ([9]; compound at 10 µM),%CYP3A4 activity ([9]; compound at 25 µM),Ki [10],Metabolic Pathway [11],remaining at 2 h [11],% Remaining [11]
"Cl.Nc1nc(NCCNc2ccc(F)cc2)nc(NCCc2c[nH]c3ccccc23)n1 [Compound 12, N^2-(2-(1H-Indol-3-yl)ethyl)-N^4-(2-((4-Fluorophenyl)amino)ethyl)-1,3,5-Triazine-2,4,6-Triamine Hydrochloride]",43300 nM,3000 ± 679 nM,7500 ng/mL,7500 ng/mL,20%,practically no viable,proliferative activity,1630 ± 301 nM,16.95 µg/mL,active,18 ± 3 nM,no or slight inhibition activity,20%,< 15%,3570 ± 491 nM,decomposition hydroxylation dehydrogenation dehydrogenation double hydroxylation hydroxylation dehydrogenation,29%,29.12%
"Cl.Nc1nc(NCCc2ccccc2)nc(NCCc2c[nH]c3ccc(F)cc23)n1 [Compound 2, N^2-(2-(5-Fluoro-1H-Indol-3-yl)ethyl)-N^4-Phenethyl-1,3,5-Triazine-2,4,6-Triamine Hydrochloride]",13900 nM,–,5000 ng/mL,5000 ng/mL,35%,practically no viable,proliferative activity,505 ± 61 nM,4.869 µg/mL,–,8 ± 2 nM,no or slight inhibition activity,50%,< 15%,413 ± 67 nM,hydroxylation ketone formation double hydroxylation dehydrogenation dehydrogenation double hydroxylation hydroxylation ketone formation and hydroxylation hydroxylation,20%,19.79%
